Tested on: RTV-268, patient 97-268 (RT M41L, D67N, M184V, L210W, T215Y, K219Q, P236L)
Assay: Phenotypic susceptibility assay (patient RTV)
Assay type: cell-based, HIV-1
Conditions: patient virus RTV-268 vs reference virus
From the text: The resistance test vectors containing a functional luciferase gene cassette were constructed and host cells were transfected with the resistance test vector DNA. The resistant test vectors contained patient-derived reverse transcriptase and protease sequences that were either susceptible or resistant to the antiretroviral agents, such as nucleoside reverse transcriptase inhibitors, non-nucleoside reverse transcriptase inhibitors and protease inhibitors. The resistance test vector viral particles produced by transfecting the resistance test vector DNA into host cells, either in the presence or absence of protease inhibitors, were used to infect target host cells grown either in the absence of NRTI or NNRTI or in the presence of increasing concentrations of the drug. The amount of luciferase activity produced in infected target host cells in the presence of drug was compared to the amount of luciferase produced in infected target host cells in the absence of drug. Drug resistance was measured as the amount of drug required to inhibit by 50% the luciferase activity detected in the absence of drug (inhibitory concentration 50%, IC50). The IC50 values were determined by plotting percent drug inhibition vs. log10 drug concentration.
Host cells were seeded in 10-cm-diameter dishes and were transfected several days after plating with resistance test vector plasmid DNA and the envelope expression vector. Transfections were performed using a calcium-phosphate precipitation procedure. The cell culture media containing the DNA precipitate was replaced with fresh medium, from one to 24 hours, after transfection. Cell culture media containing resistance test vector viral particles was harvested one to four days after transfection and was passed through a […] filter before being stored at […]. HIV capsid protein (p24) levels in the harvested cell culture media were determined by an EIA method as described by the manufacturer (SIAC; Frederick, Md.). Before infection, target cells (293 and 293/T) were plated in cell culture media. Control infections were performed using cell culture media from mock transfections (no DNA) or transfections containing the resistance test vector plasmid DNA without the envelope expression plasmid. One to three or more days after infection the media was removed and cell lysis buffer (Promega) was added to each well. Cell lysates were assayed for luciferase activity (FIG. 3). The inhibitory effect of the drug was determined using the following equation: % luciferase inhibition=1−(RLUluc [drug]÷RLUluc)×100 where RLUluc [drug] is the relative light unit of luciferase activity in infected cells in the presence of drug and RLUluc is the Relative Light Unit of luciferase activity in infected cells in the absence of drug. IC50 values were obtained from the sigmoidal curves that were generated from the data by plotting the percent inhibition of luciferase activity vs. the log10 drug concentration. The drug inhibition curves are shown in (FIG. 3).
A resistance test vector was constructed as described in Example 1 from a patient sample designated 97-268. This patient had been treated with AZT and 3TC (NRTIs), indinavir and saquinavir (PRIs) and delavirdine (an NNRTI) for periods varying from 1 month to 2 years. Isolation of viral RNA and RT/PCR was used to generate a patient derived segment that comprised viral sequences coding for all of PR and amino acids 1-313 of RT. The patient derived segment was inserted into a indicator gene viral vector to generate a resistance test vector designated RTV-268. RTV-268 was then tested using the phenotypic susceptibility assay to determine accurately and quantitatively the level of susceptibility to a panel of anti-retroviral drugs. This panel of anti-retroviral drugs comprised members of the classes known as NRTIs (AZT, 3TC, d4T, ddI and ddC), NNRTIs (delavirdine and nevirapine), and PRIs (indinavir, nelfinavir, ritonavir, and saquinavir). An IC50 was determined for each drug tested. […]

SMILES	change in susceptibility
Nc1ccn([C@@H]2CS[C@H](CO)O2)c(=O)n1 [3TC]	significant resistance
Cc1cn([C@H]2C[C@H](N=[N+]=[N-])[C@@H](CO)O2)c(=O)[nH]c1=O [AZT]	significant resistance
Cc1cn([C@H]2C=C[C@@H](CO)O2)c(=O)[nH]c1=O [d4T]	slight shifts in susceptibility
Nc1ccn([C@H]2CC[C@@H](CO)O2)c(=O)n1 [ddC]	slight shifts in susceptibility
O=c1[nH]cnc2c1ncn2[C@H]1CC[C@@H](CO)O1 [ddI]	slight shifts in susceptibility

Tested on: codon 181 mutant HIV-1
Assay: not given
Conditions: cited from earlier work

SMILES	change in IC between wild-type and codon 181 mutant HIV-1 [fold]
CCc1cc(CCc2nc3c(Cl)ccc(Cl)c3o2)c(=S)[nH]c1C [L-702,019]	3

From US7037644B1, “Means and methods for monitoring non-nucleoside reverse transcriptase inhibitor antiretroviral therapy and guiding therapeutic decisions in the treatment of HIV/AIDS” (ViroLogic, Inc., priority 1998, dated 2006)
